# Test results from article PMC4506373 (Journal of Ginseng Research, 2014).
# System: special ginsenosidase type-I
# Conditions: 0.02 M acetate buffer pH 5.0, 45°C; hydrolysis of 3-O-Glc of Rb2 to C-O
smiles,measurement,value
CC(C)=CCC[C@](C)(O[C@@H]1O[C@H](CO[C@@H]2OC[C@H](O)[C@H](O)[C@H]2O)[C@@H](O)[C@H](O)[C@H]1O)[C@H]1CC[C@]2(C)[C@@H]1[C@H](O)C[C@@H]1[C@@]3(C)CC[C@H](O[C@@H]4O[C@H](CO)[C@@H](O)[C@H](O)[C@H]4O[C@@H]4O[C@H](CO)[C@@H](O)[C@H](O)[C@H]4O)C(C)(C)[C@@H]3CC[C@]12C [Rb2],Km,20.4 ± 2.1 mM
